Laboratory results taken from US20010006697A1, “Composition and method for producing low cholesterol eggs” (priority 1997, published 2001).
“And” between values parts separate entries of the source, which are not always exact repeats. Identical values can stand only once. Like-named read-outs stand apart in the source and are kept apart here. Marks after values point to notes of the source that are not given here.

Legend:
[1] = test system: laying hens; test: Liver cholesterol content; conditions: day 35
[2] = test system: laying hens; test: Egg production, egg weights and yolk weights of statin-treated laying hens; type: in vivo, White Leghorn hens
Protocol: Hens were treated as described in Example 1. Egg yolk was weighed as outlined in Example 2.

[3] = test system: plasma VLDL particles; conditions: day 35
[4] = test system: laying hens; conditions: 0.03% of diet; day 35, fasted 15 hours
[5] = test system: plasma VLDL particles; conditions: day 35; remark: listed apart in the source
[6] = test system: laying hens; test: Yolk cholesterol contents of eggs from statin-treated laying hens; type: in vivo, White Leghorn hens
Protocol: Agric. […] Hens were treated as described in Example 1. […] The eggs were hard-cooked, and the yolks were separated, weighed, and crumbled. […] Agric. […] Egg homogenate filtrates were analyzed for cholesterol as described in Rudel, L. L. and Morris, M. D., J. Lipid Res. 14:364-366 (1973).

[7] = 0.03% of diet, Overall (weeks 1-5)
[8] = 0.06% of diet, Overall (weeks 1-5)
[9] = 0.06% of diet, week 5 (maximal reduction for simvastatin, lovastatin)

`CCC(C)(C)C(=O)O[C@H]1C[C@@H](C)C=C2C=C[C@H](C)[C@H](CC[C@@H]3C[C@@H](O)CC(=O)O3)[C@H]21` [Simvastatin] was tested, and the “Liver Cholesterol mg/g liver” value ([1]; 0.03% of diet) was 3.1 ± 0.10^b mg/g liver, the “Liver Cholesterol mg/liver” value ([1]; 0.03% of diet) was 86.8 ± 2.9^a mg/liver and the “Liver Cholesterol mg/g liver” value ([1]; 0.06% of diet) was 2.9 ± 0.04^b,c mg/g liver. The “Liver Cholesterol mg/liver” value ([1]; 0.06% of diet) was 82.6 ± 1.9^a mg/liver, the “Egg weight, g” value [2, 7] was 63.3 ± 1.4^a,b (141) g and the “Hen-day egg production, %” value [2, 7] was 80.6 ± 2.3^a,b (141) %. For the same compound, the “Egg weight, g” value ([2]; 0.03% of diet, Week 1) was 63.8 ± 1.0^a g, the “Hen-day egg production, %” value ([2]; 0.03% of diet, Week 1) was 80.0 ± 2.5^d % and the “Egg weight, g” value ([2]; 0.03% of diet, Week 2) was 63.9 ± 0.9^a,b g. The “Hen-day egg production, %” value ([2]; 0.03% of diet, Week 2) was 85.7 ± 1.5^a,b %, the “Egg weight, g” value ([2]; 0.03% of diet, Week 3) was 62.5 ± 0.7^b,c g and the “Hen-day egg production, %” value ([2]; 0.03% of diet, Week 3) was 80.0 ± 1.2^b %. For the same compound, the “Egg weight, g” value ([2]; 0.03% of diet, Week 4) was 62.8 ± 0.7^b,c g, the “Hen-day egg production, %” value ([2]; 0.03% of diet, Week 4) was 80.0 ± 1.2^b,c % and the “Egg weight, g” value ([2]; 0.03% of diet, Week 5) was 62.9 ± 0.7^a,b g. For the same compound, the “Hen-day egg production, %” value ([2]; 0.03% of diet, Week 5) was 80.0 ± 1.2^b,c %, the “Egg weight, g” value [2, 8] was 62.0 ± 1.9^a,b (144) g and the “Hen-day egg production, %” value [2, 8] was 82.3 ± 1.9^a,b (144) %. The “Egg weight, g” value ([2]; 0.06% of diet, Week 1) was 63.8 ± 1.0^a g, the “Hen-day egg production, %” value ([2]; 0.06% of diet, Week 1) was 85.7 ± 1.5^b,c % and the “Egg weight, g” value ([2]; 0.06% of diet, Week 2) was 62.0 ± 1.0^b,c g. The “Hen-day egg production, %” value ([2]; 0.06% of diet, Week 2) was 82.9 ± 1.0^b %, the “Egg weight, g” value ([2]; 0.06% of diet, Week 3) was 61.0 ± 1.0^c g and the “Hen-day egg production, %” value ([2]; 0.06% of diet, Week 3) was 77.1 ± 1.2^b %. The “Egg weight, g” value ([2]; 0.06% of diet, Week 4) was 62.2 ± 1.0^c,d g, the “Hen-day egg production, %” value ([2]; 0.06% of diet, Week 4) was 82.9 ± 1.0^b % and the “Egg weight, g” value ([2]; 0.06% of diet, Week 5) was 60.5 ± 0.8^b g. The “Hen-day egg production, %” value ([2]; 0.06% of diet, Week 5) was 88.6 ± 1.0^a %, the “Plasma VLDL particle Diameter nm” value ([3]; 0.03% of diet) was 35.2 ± 0.1^a,b nm and the “Plasma VLDL particle Diameter nm” value ([3]; 0.06% of diet) was 35.3 ± 0.1^a,b nm. The “change of plasma total cholesterol concentration vs control” value [4] was −36%, the “Plasma VLDL composition: EC (esterified cholesterol)” value ([5]; 0.03% of diet) was 0.06 ± 0.02^a,b % and the “Plasma VLDL composition: PC (phosphatidylcholine)” value ([5]; 0.03% of diet) was 12.15 ± 0.58^b %. The “Plasma VLDL composition: PE (phosphatidylethanolamine)” value ([5]; 0.03% of diet) was 3.96 ± 0.17^a %, the “Plasma VLDL composition: Protein” value ([5]; 0.03% of diet) was 17.99 ± 1.48^a % and the “Plasma VLDL composition: SM (sphingomyelin)” value ([5]; 0.03% of diet) was 1.77 ± 1.24^a %. For the same compound, the “Plasma VLDL composition: TG (triglyceride)” value ([5]; 0.03% of diet) was 61.23 ± 2.98^a %, the “Plasma VLDL composition: UC (unesterified cholesterol)” value ([5]; 0.03% of diet) was 2.84 ± 0.20^a % and the “Plasma VLDL composition: EC (esterified cholesterol)” value ([5]; 0.06% of diet) was 0.08 ± 0.04^a,b %. For the same compound, the “Plasma VLDL composition: PC (phosphatidylcholine)” value ([5]; 0.06% of diet) was 13.85 ± 0.61^a,b %, the “Plasma VLDL composition: PE (phosphatidylethanolamine)” value ([5]; 0.06% of diet) was 3.65 ± 0.51^a % and the “Plasma VLDL composition: Protein” value ([5]; 0.06% of diet) was 17.06 ± 0.84^a %. The “Plasma VLDL composition: SM (sphingomyelin)” value ([5]; 0.06% of diet) was 0.36 ± 0.23^a %, the “Plasma VLDL composition: TG (triglyceride)” value ([5]; 0.06% of diet) was 62.03 ± 1.53^a % and the “Plasma VLDL composition: UC (unesterified cholesterol)” value ([5]; 0.06% of diet) was 2.97 ± 0.13^a %. The “Yolk cholesterol content, mg cholesterol/g yolk” value ([6]; 0.03% of diet, Week 0) was 10.8 ± 0.2^a mg cholesterol/g yolk, the “Yolk cholesterol content, mg cholesterol/yolk” value ([6]; 0.03% of diet, Week 0) was 189.7 ± 6.1^a mg cholesterol/yolk and the “Yolk cholesterol content, mg cholesterol/g yolk” value ([6]; 0.03% of diet, Week 1) was 11.2 ± 0.2^a,b mg cholesterol/g yolk. The “Yolk cholesterol content, mg cholesterol/yolk” value ([6]; 0.03% of diet, Week 1) was 192.9 ± 5.3^a mg cholesterol/yolk, the “Yolk cholesterol content, mg cholesterol/g yolk” value ([6]; 0.03% of diet, Week 2) was 10.3 ± 0.2^c,d mg cholesterol/g yolk and the “Yolk cholesterol content, mg cholesterol/g yolk” value ([6]; 0.03% of diet, Week 3) was 10.0 ± 0.1^c,d mg cholesterol/g yolk. The “Yolk cholesterol content, mg cholesterol/yolk” value ([6]; 0.03% of diet, Week 3) was 166.2 ± 2.7^b mg cholesterol/yolk, the “Yolk cholesterol content, mg cholesterol/g yolk” value ([6]; 0.03% of diet, Week 4) was 10.3 ± 0.2^b,c mg cholesterol/g yolk and the “Yolk cholesterol content, mg cholesterol/g yolk” value ([6]; 0.03% of diet, Week 5) was 10.1 ± 0.1^b mg cholesterol/g yolk. For the same compound, the “Yolk cholesterol content, mg cholesterol/yolk” value ([6]; 0.03% of diet, Week 5) was 172.1 ± 2.9^b,c mg cholesterol/yolk, the “Yolk cholesterol content, mg cholesterol/g yolk” value ([6]; 0.06% of diet, Week 0) was 11.0 ± 0.3^a mg cholesterol/g yolk and the “Yolk cholesterol content, mg cholesterol/yolk” value ([6]; 0.06% of diet, Week 0) was 191.1 ± 7.9^a mg cholesterol/yolk. The “Yolk cholesterol content, mg cholesterol/g yolk” value ([6]; 0.06% of diet, Week 1) was 10.7 ± 0.2^b mg cholesterol/g yolk, the “Yolk cholesterol content, mg cholesterol/yolk” value ([6]; 0.06% of diet, Week 1) was 188.7 ± 9.1^a,b mg cholesterol/yolk and the “Yolk cholesterol content, mg cholesterol/g yolk” value ([6]; 0.06% of diet, Week 2) was 10.0 ± 0.1^d mg cholesterol/g yolk. For the same compound, the “Yolk cholesterol content, mg cholesterol/yolk” value ([6]; 0.06% of diet, Week 2) was 170.8 ± 3.0^b mg cholesterol/yolk, the “Yolk cholesterol content, mg cholesterol/g yolk” value ([6]; 0.06% of diet, Week 3) was 9.8 ± 0.1^d mg cholesterol/g yolk and the “Yolk cholesterol content, mg cholesterol/yolk” value ([6]; 0.06% of diet, Week 3) was 166.0 ± 4.6^b mg cholesterol/yolk. For the same compound, the “Yolk cholesterol content, mg cholesterol/g yolk” value ([6]; 0.06% of diet, Week 4) was 9.9 ± 0.3^c mg cholesterol/g yolk, the “Yolk cholesterol content, mg cholesterol/yolk” value ([6]; 0.06% of diet, Week 4) was 170.4 ± 7.0^b mg cholesterol/yolk and the “Yolk cholesterol content, mg cholesterol/g yolk” value ([6]; 0.06% of diet, Week 5) was 9.3 mg cholesterol/g yolk and 9.3 ± 0.1^c mg cholesterol/g yolk. The “Yolk cholesterol content, mg cholesterol/yolk” value ([6]; 0.06% of diet, Week 5) was 158.0 mg cholesterol/yolk and 158.0 ± 2.7^c,d mg cholesterol/yolk, the “yolk cholesterol reduction from control on a per yolk (egg) basis” value [6, 9] was 22% and the “yolk cholesterol reduction from control per g of yolk (mg/g basis)” value [6, 9] was 20%.
